US20220087962A1, “COMPOSITIONS AND METHODS FOR TREATING AGE-RELATED DISEASES OR CONDITIONS” (Arizona Board of Regents on Behalf of the University of …, priority 2019, published 2022)
Entries after “also recorded” stand apart in the source; their conditions may differ.

Tests used:
brains of rats = conditions: cited from earlier work
[1] = system: C. elegans expressing human Aβ1-42 in body wall muscle; assay: Paralysis in C. elegans expressing human Aβ1-42 in body wall muscle (Alzheimer's disease model); assay type: in vivo, Caenorhabditis elegans; conditions: 3HAA supplementation; transgenic Aβ1-42 in body wall muscle
Description: It was then tested whether 3HAA would prevent Aβ toxicity in vivo. In C. elegans, transgenic expression of the aggregate-prone 42 amino acid form of Aβ (Aβ1-42) in body wall muscle induces paralysis (Link C D. Proc Natl Acad Sci USA 1995, 92:9368-72). […] Next and as described below, 3HAA will be tested as a treatment for amyloid pathology in a cellular context more relevant to AD.

C. elegans [2] = assay: Endogenous H2O2 produced by C. elegans in vivo; parameters: species or system Caenorhabditis elegans; conditions: 3HAA supplementation
From the text: (§1) Superoxide dismutases degrade cellular superoxide to oxygen and H2O2.

[3] = system: C. elegans expressing a 35-unit polyglutamine repeat peptide in body wall muscle; assay: Paralysis in C. elegans expressing a 35-unit polyglutamine repeat peptide in body wall muscle (Huntington's disease model); assay type: in vivo, Caenorhabditis elegans; conditions: 3HAA supplementation; aggregate-prone polyglutamine repeat in body wall muscle
C. elegans [4] = assay: C. elegans lifespan with 3HAA supplementation; assay type: in vivo, Caenorhabditis elegans; conditions: 3HAA supplementation of worms
Description: 3HAA mediates lifespan extension by haao-1 knockdown. 3HAA is red in color. Worms with reduced HAAO turned visibly red with age. Using liquid chromatography-tandem mass spectrometry (LC-MS/MS), it was confirmed that these worms had elevated 3HAA (FIG. 3B). Next, it was assessed whether 3HAA may mediate the benefits of reducing haao-1. Indeed, worms supplemented with 3HAA were long-lived (FIG. 3C), mimicking haao-1 knockdown (FIG. 3D).

Aβ = Aβ (Homo sapiens, UniProt P05067); conditions: buffered media; direct binding to Aβ; cited from earlier work
Sequence of Aβ (P05067 672-713 limits assumed): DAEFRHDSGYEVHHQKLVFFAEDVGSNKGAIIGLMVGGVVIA

[5] = Direct interaction of 3HAA with H2O2 in vitro; conditions: addition of 3HAA in the absence of other media components
From the text: as §1

hemeoxygenase-1 (HO-1) = conditions: human cell culture; cited from earlier work
[6] = system: cultured human blood cells; conditions: cited from earlier work
tau = conditions: cultured human neurons; cited from earlier work
brain tissue = conditions: cited from earlier work
α-synuclein = α-synuclein (Homo sapiens, UniProt P37840); conditions: QA self-assembled fibrils; cited from earlier work

Row | Structure (SMILES) | lipid peroxidation (brains of rats) | onset of paralysis (Aβ toxicity) [1] | endogenous H2O2 produced by C. elegans in vivo (C. elegans [2]) | paralysis (polyglutamine repeat model) [3] | lifespan (C. elegans [4]) | Aβ misfolding/aggregation in vitro (Aβ) | measureable H2O2 in vitro (direct degradation of H2O2) [5] | expression of hemeoxygenase-1 (HO-1) (hemeoxygenase-1 (HO-1)) | LDL oxidation [6] | tau phosphorylation (tau) | in vivo lipid peroxidation in brain tissue (brain tissue) | seeding of α-synuclein aggregation (α-synuclein)
1 | Nc1c(O)cccc1C(=O)O [3HAA, 3-hydroxyanthranilic acid] | prevents | delayed onset of paralysis; also recorded: delays paralysis; also recorded: delayed Aβ pathology | limited endogenous H2O2; also recorded: reduces H2O2 produced by C. elegans in vivo | delays paralysis | long-lived; also recorded: extends lifespan; also recorded: robustly extended lifespan | prevents Aβ aggregation; also recorded: prevents Aβ misfolding through direct binding; also recorded: preventing misfolding and aggregation | reduced measureable H2O2; also recorded: directly breaks down H2O2; also recorded: directly degrades H2O2; also recorded: direct degradation of hydrogen peroxide | induces expression of the antioxidant hemeoxygenase-1 (HO-1) | prevents LDL oxidation | – | – | –
2 | O=C(O)c1cccnc1C(=O)O [QA, quinolinic acid] | – | – | – | – | – | – | – | – | – | drives tau phosphorylation | induces in vivo lipid peroxidation in brain tissue | seed and accelerate aggregation of α-synuclein; also recorded: seeding aggregation of α-synuclein
